According to ChEMBL document CHEMBL5465560, “Selectivity Literature for EUbOPEN Chemogenomic Library” (2024):

What was measured:
[1] = target: T1, Serine/threonine-protein kinase 36 (Homo sapiens) (UniProt Q9NRP7); experiment: Selectivity interaction (KinomeScan (DiscoverX)) EUB0000229b STK36; conditions: at 10 µM
T1 sequence (whole entry): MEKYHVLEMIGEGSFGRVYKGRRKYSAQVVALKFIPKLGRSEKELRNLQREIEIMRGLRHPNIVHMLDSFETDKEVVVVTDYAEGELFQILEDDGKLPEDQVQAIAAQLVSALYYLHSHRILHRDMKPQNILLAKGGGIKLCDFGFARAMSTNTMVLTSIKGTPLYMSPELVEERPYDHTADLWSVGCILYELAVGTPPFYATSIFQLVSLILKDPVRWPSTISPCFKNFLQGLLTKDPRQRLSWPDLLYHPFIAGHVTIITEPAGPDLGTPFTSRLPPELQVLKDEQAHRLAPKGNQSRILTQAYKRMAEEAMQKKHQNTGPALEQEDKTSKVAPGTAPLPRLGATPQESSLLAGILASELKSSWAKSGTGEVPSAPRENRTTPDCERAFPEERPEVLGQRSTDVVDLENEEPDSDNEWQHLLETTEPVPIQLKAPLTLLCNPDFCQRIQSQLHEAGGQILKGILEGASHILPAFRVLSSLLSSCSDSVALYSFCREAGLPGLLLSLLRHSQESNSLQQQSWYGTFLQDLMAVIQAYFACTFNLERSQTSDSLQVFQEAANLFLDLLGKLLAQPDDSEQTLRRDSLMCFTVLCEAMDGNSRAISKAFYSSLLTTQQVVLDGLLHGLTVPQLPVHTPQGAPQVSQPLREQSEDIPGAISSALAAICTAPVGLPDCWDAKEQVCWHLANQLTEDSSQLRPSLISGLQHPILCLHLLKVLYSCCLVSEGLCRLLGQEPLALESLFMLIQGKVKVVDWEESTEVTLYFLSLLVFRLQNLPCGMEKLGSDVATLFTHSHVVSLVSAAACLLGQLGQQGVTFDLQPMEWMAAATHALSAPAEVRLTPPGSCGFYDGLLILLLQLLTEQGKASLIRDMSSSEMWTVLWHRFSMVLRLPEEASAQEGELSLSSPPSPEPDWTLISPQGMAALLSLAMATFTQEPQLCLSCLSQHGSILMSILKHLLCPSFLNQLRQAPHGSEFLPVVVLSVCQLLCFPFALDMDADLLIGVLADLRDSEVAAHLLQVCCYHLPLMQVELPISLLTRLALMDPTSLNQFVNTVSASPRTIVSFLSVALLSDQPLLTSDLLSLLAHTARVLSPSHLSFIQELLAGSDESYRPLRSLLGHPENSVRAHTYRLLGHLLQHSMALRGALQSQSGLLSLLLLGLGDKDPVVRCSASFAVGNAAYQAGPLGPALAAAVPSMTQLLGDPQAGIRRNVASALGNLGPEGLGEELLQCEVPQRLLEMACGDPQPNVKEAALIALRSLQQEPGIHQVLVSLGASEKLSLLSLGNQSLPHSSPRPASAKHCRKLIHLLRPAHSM

[2] = target: T2, Ephrin type-A receptor 1 (Homo sapiens) (UniProt P21709); experiment: Selectivity interaction (KinomeScan (DiscoverX)) EUB0000607a EPHA1; conditions: at 10 µM
T2 sequence (whole entry): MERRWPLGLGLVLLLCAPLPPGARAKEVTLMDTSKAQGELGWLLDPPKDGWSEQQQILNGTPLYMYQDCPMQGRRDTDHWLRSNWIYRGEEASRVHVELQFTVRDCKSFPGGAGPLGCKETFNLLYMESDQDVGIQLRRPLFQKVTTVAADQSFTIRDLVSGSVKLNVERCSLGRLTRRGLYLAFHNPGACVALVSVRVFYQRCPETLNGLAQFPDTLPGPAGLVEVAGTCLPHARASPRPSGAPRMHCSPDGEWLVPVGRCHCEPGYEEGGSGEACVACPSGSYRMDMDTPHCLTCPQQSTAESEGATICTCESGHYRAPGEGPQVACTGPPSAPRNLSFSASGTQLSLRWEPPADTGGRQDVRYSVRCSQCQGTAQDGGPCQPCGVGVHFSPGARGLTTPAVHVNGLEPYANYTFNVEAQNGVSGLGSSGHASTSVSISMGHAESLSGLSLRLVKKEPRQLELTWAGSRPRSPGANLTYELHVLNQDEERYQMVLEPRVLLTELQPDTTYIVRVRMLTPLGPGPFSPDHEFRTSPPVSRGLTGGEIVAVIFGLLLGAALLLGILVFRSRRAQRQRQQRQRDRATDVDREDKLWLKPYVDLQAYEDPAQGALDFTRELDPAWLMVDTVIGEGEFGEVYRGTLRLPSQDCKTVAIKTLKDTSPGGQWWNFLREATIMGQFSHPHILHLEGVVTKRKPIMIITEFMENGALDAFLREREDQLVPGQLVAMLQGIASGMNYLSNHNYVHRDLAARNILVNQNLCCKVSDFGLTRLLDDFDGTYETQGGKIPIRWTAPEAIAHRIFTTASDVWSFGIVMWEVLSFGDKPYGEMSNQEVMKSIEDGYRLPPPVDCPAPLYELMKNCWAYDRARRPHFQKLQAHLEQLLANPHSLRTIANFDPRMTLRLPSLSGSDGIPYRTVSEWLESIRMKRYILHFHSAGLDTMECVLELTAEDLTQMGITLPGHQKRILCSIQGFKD

[3] = target: Vascular endothelial growth factor receptor 1 (Homo sapiens) (UniProt P17948); experiment: Selectivity interaction (SelectScreen profiling (Invitrogen)) EUB0000607a FLT1; conditions: at 2 µM
[4] = target: Serine/threonine-protein kinase N1 (Homo sapiens, UniProt Q16512); experiment: Selectivity interaction (KinomeScan (DiscoverX)) EUB0001049a PKN1; conditions: at 1 µM
[5] = target: Mitogen-activated protein kinase 7 (Homo sapiens) (UniProt Q13164); experiment: Selectivity interaction (KinomeScan (DiscoverX)) EUB0001619a MAPK7; conditions: at 1 µM
Mitogen-activated protein kinase 7 (Homo sapiens), sequence (Q13164 2-816 limits assumed): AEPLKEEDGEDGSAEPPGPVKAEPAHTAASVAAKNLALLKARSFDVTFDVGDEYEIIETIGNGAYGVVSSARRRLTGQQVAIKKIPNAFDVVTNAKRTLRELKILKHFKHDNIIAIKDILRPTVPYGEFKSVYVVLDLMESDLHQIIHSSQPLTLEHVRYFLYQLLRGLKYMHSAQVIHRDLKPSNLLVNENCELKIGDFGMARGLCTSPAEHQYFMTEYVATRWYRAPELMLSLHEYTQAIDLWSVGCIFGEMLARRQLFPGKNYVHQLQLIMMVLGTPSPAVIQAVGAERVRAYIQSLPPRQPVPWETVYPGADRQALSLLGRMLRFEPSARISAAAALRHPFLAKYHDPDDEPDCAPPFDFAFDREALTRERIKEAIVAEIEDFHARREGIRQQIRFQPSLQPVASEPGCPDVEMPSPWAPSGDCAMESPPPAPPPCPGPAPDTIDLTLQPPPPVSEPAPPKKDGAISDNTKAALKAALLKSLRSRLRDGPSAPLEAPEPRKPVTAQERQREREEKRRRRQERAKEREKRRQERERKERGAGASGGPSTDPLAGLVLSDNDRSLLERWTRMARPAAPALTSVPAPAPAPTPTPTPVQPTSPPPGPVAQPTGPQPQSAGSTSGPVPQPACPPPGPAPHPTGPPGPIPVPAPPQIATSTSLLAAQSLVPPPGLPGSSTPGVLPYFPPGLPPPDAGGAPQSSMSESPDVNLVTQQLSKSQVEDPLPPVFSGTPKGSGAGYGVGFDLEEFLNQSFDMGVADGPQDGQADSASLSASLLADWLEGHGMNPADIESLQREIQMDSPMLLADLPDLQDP

Serine/threonine-protein kinase N1, sequence (Q16512 2-942 limits assumed): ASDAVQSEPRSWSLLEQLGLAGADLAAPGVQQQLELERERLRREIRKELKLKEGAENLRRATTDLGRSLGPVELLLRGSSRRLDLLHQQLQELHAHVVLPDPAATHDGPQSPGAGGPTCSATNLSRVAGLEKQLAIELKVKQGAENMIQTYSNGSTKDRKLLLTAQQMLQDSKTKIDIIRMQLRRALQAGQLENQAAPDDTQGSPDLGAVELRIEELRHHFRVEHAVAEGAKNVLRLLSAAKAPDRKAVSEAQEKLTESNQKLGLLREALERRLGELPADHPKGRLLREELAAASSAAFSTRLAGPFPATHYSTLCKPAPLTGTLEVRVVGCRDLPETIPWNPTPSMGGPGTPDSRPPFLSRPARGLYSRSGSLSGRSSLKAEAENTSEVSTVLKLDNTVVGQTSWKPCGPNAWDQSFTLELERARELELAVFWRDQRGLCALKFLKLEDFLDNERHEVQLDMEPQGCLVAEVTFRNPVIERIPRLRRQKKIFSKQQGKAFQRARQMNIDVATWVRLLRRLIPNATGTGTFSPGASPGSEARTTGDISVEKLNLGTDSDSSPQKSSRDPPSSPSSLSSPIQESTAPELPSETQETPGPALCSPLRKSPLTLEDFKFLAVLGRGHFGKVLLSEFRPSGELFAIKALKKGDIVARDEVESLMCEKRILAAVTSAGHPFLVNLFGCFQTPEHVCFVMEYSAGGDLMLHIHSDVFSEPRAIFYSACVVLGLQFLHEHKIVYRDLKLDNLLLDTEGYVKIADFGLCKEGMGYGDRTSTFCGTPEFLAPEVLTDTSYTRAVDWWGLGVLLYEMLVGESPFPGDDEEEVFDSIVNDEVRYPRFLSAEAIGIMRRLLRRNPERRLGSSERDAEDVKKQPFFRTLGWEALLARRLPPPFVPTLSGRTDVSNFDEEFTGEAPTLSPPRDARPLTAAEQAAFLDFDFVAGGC
Vascular endothelial growth factor receptor 1 (Homo sapiens), sequence (P17948 whole entry): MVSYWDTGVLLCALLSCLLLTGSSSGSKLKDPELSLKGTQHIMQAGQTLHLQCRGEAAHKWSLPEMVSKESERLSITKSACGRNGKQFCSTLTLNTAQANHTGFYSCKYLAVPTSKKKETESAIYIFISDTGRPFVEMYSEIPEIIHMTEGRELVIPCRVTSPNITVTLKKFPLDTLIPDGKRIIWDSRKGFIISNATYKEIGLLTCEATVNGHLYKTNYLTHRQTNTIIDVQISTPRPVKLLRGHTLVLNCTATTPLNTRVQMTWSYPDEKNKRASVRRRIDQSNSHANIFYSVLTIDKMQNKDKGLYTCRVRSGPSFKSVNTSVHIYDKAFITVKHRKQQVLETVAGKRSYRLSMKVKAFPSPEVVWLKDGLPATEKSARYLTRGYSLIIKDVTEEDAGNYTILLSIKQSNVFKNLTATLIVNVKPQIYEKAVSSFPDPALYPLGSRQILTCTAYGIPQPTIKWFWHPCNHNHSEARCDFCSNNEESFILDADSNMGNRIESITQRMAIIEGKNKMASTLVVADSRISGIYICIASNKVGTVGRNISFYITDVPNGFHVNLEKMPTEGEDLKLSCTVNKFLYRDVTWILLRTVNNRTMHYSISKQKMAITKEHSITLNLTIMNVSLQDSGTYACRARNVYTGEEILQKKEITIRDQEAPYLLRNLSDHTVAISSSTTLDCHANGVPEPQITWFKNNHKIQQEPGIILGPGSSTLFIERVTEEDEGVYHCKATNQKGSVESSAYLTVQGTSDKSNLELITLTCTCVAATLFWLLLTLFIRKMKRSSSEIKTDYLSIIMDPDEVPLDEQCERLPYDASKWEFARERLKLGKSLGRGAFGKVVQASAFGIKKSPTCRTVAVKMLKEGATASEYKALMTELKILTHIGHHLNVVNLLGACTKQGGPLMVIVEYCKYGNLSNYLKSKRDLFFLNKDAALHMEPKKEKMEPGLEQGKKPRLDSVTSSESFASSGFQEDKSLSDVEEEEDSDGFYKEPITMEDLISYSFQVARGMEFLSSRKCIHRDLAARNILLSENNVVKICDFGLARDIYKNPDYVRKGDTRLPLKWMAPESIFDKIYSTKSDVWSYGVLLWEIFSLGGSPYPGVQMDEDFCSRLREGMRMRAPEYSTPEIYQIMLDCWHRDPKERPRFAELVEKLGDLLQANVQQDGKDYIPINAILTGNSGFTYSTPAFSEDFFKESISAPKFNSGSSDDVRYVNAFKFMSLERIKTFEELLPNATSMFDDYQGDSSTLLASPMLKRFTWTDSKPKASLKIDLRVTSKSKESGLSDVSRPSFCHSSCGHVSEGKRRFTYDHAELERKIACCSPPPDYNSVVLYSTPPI

SMILES: COc1cc(N(C)c2ccnc3ccc(C(F)(F)F)cc23)cc(OC)c1OC
- % binding [1]: 100%

SMILES: CNC(=O)Nc1ccc(-c2nc(N3CC4CCC(C3)O4)c3cnn(C4CCC5(CC4)OCCO5)c3n2)cc1
- % of control [2]: 81%
- % of inhibition [3]: 8%

SMILES: COc1cc(Nc2nc(C)cc(-c3cnn4nc(OC)ccc34)n2)cc(C(F)(F)F)c1
- % of control [4]: 94%

SMILES: N#Cc1cccc(-c2c[nH]c3ncnc(N4CCOCC4)c23)c1
- % of control [5]: 100%
